Measurements taken from publication PMC2677626, “How β-Lactam Antibiotics Enter Bacteria: A Dialogue with the Porins” (PLoS ONE, 2009).

Target: T1, OmpC (Escherichia coli, UniProt P06996)
T1 construct: OmpC porin in planar lipid bilayer
Experiment: single-channel ion current blockage in planar lipid bilayer
Assay type: binding
Conditions: data not shown in paper; same pattern as Omp36

T1 sequence (P06996 22-367): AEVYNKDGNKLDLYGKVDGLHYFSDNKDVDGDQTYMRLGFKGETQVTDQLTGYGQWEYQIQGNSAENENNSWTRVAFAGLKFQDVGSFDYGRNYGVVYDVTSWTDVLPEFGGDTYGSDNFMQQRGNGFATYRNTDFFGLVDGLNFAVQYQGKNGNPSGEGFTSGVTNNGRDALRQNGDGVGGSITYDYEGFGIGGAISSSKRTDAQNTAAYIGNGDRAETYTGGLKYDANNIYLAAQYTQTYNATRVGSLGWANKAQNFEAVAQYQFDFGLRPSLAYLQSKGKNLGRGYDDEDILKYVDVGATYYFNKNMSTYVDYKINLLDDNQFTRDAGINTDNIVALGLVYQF

Compound	single-channel ion current blockage in planar lipid bilayer
CO/N=C(\C(=O)N[C@@H]1C(=O)N2C(C(=O)[O-])=C(C[N+]3(C)CCCC3)CS[C@H]12)c1csc(N)n1 [cefepime]	showed the same pattern of interaction with ertapenem, cefepime, ceftazidime and ampicillin (data not shown)
C[C@@H](O)[C@H]1C(=O)N2C(C(=O)O)=C(S[C@@H]3CN[C@H](C(=O)Nc4cccc(C(=O)O)c4)C3)[C@H](C)[C@H]12 [ertapenem]	showed the same pattern of interaction with ertapenem, cefepime, ceftazidime and ampicillin (data not shown)
